What was measured:
human SGLT2 = biological target: T1, human SGLT2 (Homo sapiens, UniProt P31639); assay: SGLT2 assay: Na-dependent 14C-AMG uptake in CHO-K1 cells stably expressing human SGLT2; type: cell-based; conditions: for IC50: 500 μM AMG, 2 hours at 37° C.
T1 construct: expressed in transfected cells; host or cells: CHO-K1
T1 sequence (P31639 1-672): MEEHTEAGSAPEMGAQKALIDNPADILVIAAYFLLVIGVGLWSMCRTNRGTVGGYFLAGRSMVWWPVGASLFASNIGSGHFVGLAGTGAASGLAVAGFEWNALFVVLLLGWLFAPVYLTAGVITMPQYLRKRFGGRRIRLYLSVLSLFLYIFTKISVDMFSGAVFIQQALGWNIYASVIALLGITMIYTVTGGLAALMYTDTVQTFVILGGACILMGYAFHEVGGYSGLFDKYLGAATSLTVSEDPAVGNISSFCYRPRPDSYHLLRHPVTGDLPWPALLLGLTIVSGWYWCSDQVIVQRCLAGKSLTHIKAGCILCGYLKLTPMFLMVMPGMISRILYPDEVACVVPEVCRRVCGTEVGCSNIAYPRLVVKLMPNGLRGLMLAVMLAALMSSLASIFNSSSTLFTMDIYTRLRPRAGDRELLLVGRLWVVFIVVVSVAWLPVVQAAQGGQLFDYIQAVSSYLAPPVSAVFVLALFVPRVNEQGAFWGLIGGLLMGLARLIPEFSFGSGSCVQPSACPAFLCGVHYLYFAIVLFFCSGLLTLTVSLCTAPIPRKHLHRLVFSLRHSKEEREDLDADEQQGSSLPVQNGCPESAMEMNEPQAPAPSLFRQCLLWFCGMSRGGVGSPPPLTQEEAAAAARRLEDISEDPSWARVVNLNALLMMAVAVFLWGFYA
In short: (§1)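 CHO-K1 cells stably expressing human SGLT1 or SGLT2, pretreated 24 h with 10 mM Na-butyrate, were exposed 10 min to compound (0.001-10 μM) in Na-containing HEPES/Tris buffer pH 7.4. Uptake of ^14C-AMG (500 μM final) ran 2 h at 37° C, then Na-dependent uptake was counted by scintillation.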

human SGLT1 = biological target: T2, human SGLT1 (Homo sapiens, UniProt P13866); assay: SGLT1 assay: Na-dependent 14C-AMG uptake in CHO-K1 cells stably expressing human SGLT1; type: cell-based; conditions: for IC50: 500 μM AMG, 2 hours at 37° C.
T2 construct: expressed in transfected cells; host or cells: CHO-K1
T2 sequence (P13866 1-664): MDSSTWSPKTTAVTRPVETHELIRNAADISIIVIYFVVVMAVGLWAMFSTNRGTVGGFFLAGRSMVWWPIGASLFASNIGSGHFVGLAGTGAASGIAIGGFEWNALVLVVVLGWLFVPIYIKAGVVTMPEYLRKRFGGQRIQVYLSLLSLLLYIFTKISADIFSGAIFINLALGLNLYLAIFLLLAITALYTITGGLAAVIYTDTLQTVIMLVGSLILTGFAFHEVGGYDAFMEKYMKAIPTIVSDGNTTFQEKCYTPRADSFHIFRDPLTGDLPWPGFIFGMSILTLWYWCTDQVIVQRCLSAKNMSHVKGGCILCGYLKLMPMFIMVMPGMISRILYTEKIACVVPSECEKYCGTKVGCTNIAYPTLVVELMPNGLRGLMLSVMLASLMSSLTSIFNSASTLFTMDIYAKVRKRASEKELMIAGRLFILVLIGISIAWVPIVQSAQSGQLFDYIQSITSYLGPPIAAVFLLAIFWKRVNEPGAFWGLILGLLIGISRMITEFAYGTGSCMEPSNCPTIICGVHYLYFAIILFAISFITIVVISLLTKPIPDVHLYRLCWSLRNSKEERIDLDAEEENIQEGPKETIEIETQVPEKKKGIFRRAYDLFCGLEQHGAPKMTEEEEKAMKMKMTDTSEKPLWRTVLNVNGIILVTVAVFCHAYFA
In short: as §1

SMILES | IC50 (human SGLT2) | IC50 (human SGLT1) | inhibition at 0.03 µM (human SGLT2; at 0.03 μM) | inhibition at 0.3 µM (human SGLT1; at 0.3 μM)
[2H]C([2H])(c1ccc2c(c1)CC2)c1cc([C@@H]2O[C@H](CO)[C@@H](O)[C@H](O)[C@H]2O)c(OC)cc1C [Compound 53, (2S,3R,4R,5S,6R)-2-(5-(dideuterium(1,2-dihydrocyclobutabenzen-4-yl)methyl)-2-methoxy-4-methylphenyl)-6-(hydroxymethyl)-tetrahydro-2H-pyran-3,4,6-triol] | 1 nM | 80 nM | – | –
[2H]C([2H])(c1ccc2c(c1)CC2)c1cc([C@@H]2O[C@H](CO)[C@@H](O)[C@H](O)[C@H]2O)c(OC)cc1Cl [Compound 56, (2S,3R,4R,5S,6R)-2-(5-[bicyclo[4.2.0]octa-(6),2,4-trien-3-yl(dideuterium)methyl]-4-chloro-2-methoxyphenyl)-6-(hydroxymethyl)oxane-3,4,5-triol] | 2 nM | 93 nM | – | –
[2H]C([2H])(c1ccc2c(c1)CC2)c1cc([C@@H]2O[C@H](CO)[C@@H](O)[C@H](O)[C@H]2O)ccc1CC [Compound 58, (2S,3R,4R,5S,6R)-2-(3-[bicyclo[4.2.0]octa-(6),2,4-trien-3-yl(dideuterium)methyl]-4-ethylphenyl)-6-(hydroxymethyl)oxane-3,4,5-triol] | 2 nM | 25 nM | – | –
[2H]C([2H])(c1ccc2c(c1)CC2)c1cc([C@@H]2O[C@H](CO)[C@@H](O)[C@H](O)[C@H]2O)c(OC)cc1CC [Compound 60, (2S,3R,4R,5S,6R)-2-(5-(dideuterium(1,2-dihydrocyclobutabenzen-4-yl)methyl)-4-ethyl-2-methoxyphenyl)-6-(hydroxymethyl)-tetrahydro-2H-pyran-3,4,5-triol] | 3 nM | 83 nM | – | –
[2H]C1([2H])Cc2ccc(Cc3cc([C@@H]4O[C@H](CO)[C@@H](O)[C@H](O)[C@H]4O)c(OC)cc3C)cc21 [Compound 63, (2S,3R,4R,5S,6R)-2-(5-((2,2-dideuterium-1,2-dihydrocyclobutabenzen-4-yl)methyl)-2-methoxy-4-methylphenyl)-6-(hydroxymethyl)-tetrahydro-2H-pyran-3,4,5-triol] | 1 nM | 84 nM | – | –
[2H]C1([2H])Cc2ccc(Cc3cc([C@@H]4O[C@H](CO)[C@@H](O)[C@H](O)[C@H]4O)ccc3C)cc21 [Compound 65, (2S,3R,4R,5S,6R)-2-[3-[(8,8-dideuterium)bicyclo[4.2.0]octa-1(6),2,4-trien-3-ylmethyl]-4-methylphenyl]-6-(hydroxymethyl)oxane-3,4,5-triol] | 3 nM | 24 nM | – | –
[2H]C1([2H])Cc2ccc(Cc3cc([C@@H]4O[C@H](CO)[C@@H](O)[C@H](O)[C@H]4O)c(OC)cc3Cl)cc21 [Compound 67, (2S,3R,4R,5S,6R)-2-(5-{[(8,8-dideuterium)bicyclo[4.2.0]octa-1(6),2,4-trien-3-yl]methyl}-4-chloro-2-methoxyphenyl)-6-(hydroxymethyl)oxane-3,4,5-triol] | 2 nM | 48 nM | – | –
[2H]C1([2H])Cc2ccc(Cc3cc([C@@H]4O[C@H](CO)[C@@H](O)[C@H](O)[C@H]4O)c(OC)cc3CC)cc21 [Compound 69, (2S,3R,4R,5S,6R)-2-(5-[(8,8-Hz)bicyclo[4.2.0]octa-1(6),2,4-trien-3-ylmethyl]-4-ethyl-2-methoxyphenyl)-6-(hydroxymethyl)oxane-3,4,5-triol] | 5 nM | 50 nM | – | –
[2H]C1([2H])Cc2ccc(Cc3cc([C@@H]4O[C@H](CO)[C@@H](O)[C@H](O)[C@H]4O)c(F)cc3C)cc21 [Compound 70, (2S,3R,4R,5S,6R)-2-(5-{[(8,8-dideuterium)bicyclo[4.2.0]octa-1(6),2,4-trien-3-yl]methyl}-2-fluoro-4-methylphenyl)-6-(hydroxymethyl)oxane-3,4,5-triol] | – | – | 35% | 85%
[2H]C1([2H])Cc2ccc(Cc3cc([C@@H]4O[C@H](CO)[C@@H](O)[C@H](O)[C@H]4O)c(F)cc3CC)cc21 [Compound 73, (2S,3R,4R,5S,6R)-2-(5-((2,2-dideuterium-1,2-dihydrocyclobutabenzen-4-yl)methyl)-4-ethyl-2-fluorophenyl)-6-(hydroxymethyl)-tetrahydro-2H-pyran-3,4,5-triol] | 3 nM | 16 nM | – | –
[2H]C1([2H])Cc2cc(Cc3cc([C@@H]4O[C@H](CO)[C@@H](O)[C@H](O)[C@H]4O)c(OC)cc3Cl)ccc21 [Compound 83, (2S,3R,4R,5S,6R)-2-(5-{[(7,7-dideuterium)bicyclo[4.2.0]octa-1(6),2,4-trien-3-yl]methyl}-4-chloro-2-methoxyphenyl)-6-(hydroxymethyl)oxane-3,4,5-triol] | 1 nM | 64 nM | – | –
[2H]C1([2H])Cc2cc(Cc3cc([C@@H]4O[C@H](CO)[C@@H](O)[C@H](O)[C@H]4O)ccc3C)ccc21 [Compound 85, (2S,3R,4R,5S,6R)-(3-((1,1-dideuterium-1,2-dihydrocyclobutabenzen-4-yl)methyl)-4-methylphenyl)-6-(hydroxymethyl)-tetrahydro-2H-pyran-3,4,5-triol] | 2 nM | 46 nM | – | –
Cc1ccc([C@@H]2O[C@H](CO)C(F)(F)[C@H](O)[C@H]2O)cc1Cc1ccc2c(c1)CC2 [Compound 91, (2S,3R,4R,6R)-2-(3-(bicyclo[4.2.0]octa-1(6),2,4-trien-3-ylmethyl)-4-methylphenyl)-5,5-difluoro-6-(hydroxymethyl)tetrahydro-2H-pyran-3,4-diol] | 1 nM | 49 nM | – | –

Other lines, results leading:

IC50 (human SGLT2) | IC50 (human SGLT1) | inhibition at 0.03 µM (human SGLT2; at 0.03 μM) | inhibition at 0.3 µM (human SGLT1; at 0.3 μM) | SMILES
3 nM | 32 nM | – | – | [2H]C1([2H])Cc2ccc(Cc3cc([C@@H]4O[C@H](CO)[C@@H](O)[C@H](O)[C@H]4O)ccc3CC)cc21 [Compound 66, (2S,3R,4R,5S,6R)-2-(3-((2,2-dideuterium-1,2-dihydrocyclobutabenzen-4-yl)methyl)-4-ethylphenyl)-6-(hydroxymethyl)-tetrahydro-2H-pyran-3,4,5-triol]
3 nM | 71 nM | – | – | [2H]C1([2H])Cc2ccc(Cc3cc([C@@H]4O[C@H](CO)[C@@H](O)[C@H](O)[C@H]4O)c(F)cc3Cl)cc21 [Compound 71, (2S,3R,4R,5S,6R)-2-{5-[(8,8-dideuterium)bicyclo[4.2.0]octa-1(6),2,4-trien-3-ylmethyl]-4-chloro-2-fluorophenyl}-6-(hydroxymethyl)oxane-3,4,5-triol]
3 nM | 24 nM | – | – | [2H]C1([2H])Cc2ccc(Cc3cc([C@@H]4O[C@H](CO)[C@@H](O)[C@H](O)[C@H]4O)c(F)cc3OC)cc21 [Compound 72, (2S,3R,4R,5S,6R)-2-{5-[(8,8-dideuterio)bicyclo[4.2.0]octa-1(6),2,4-trien-3-ylmethyl]-2-fluoro-4-methoxyphenyl}-6-(hydroxymethyl)oxane-3,4,5-triol]
10 nM | 12 nM | – | – | [2H]C1([2H])Cc2ccc(Cc3cc([C@@H]4O[C@H](CO)[C@@H](O)[C@H](O)[C@H]4O)c(F)cc3C3CC3)cc21 [Compound 74, (2S,3R,4R,5S,6R)-2-(4-cyclopropyl-5-((2,2-dideuterium-1,2-dihydrocyclobutabenzen-4-yl)methyl)-2-fluorophenyl)-6-(hydroxymethyl)-tetrahydro-2H-pyran-3,4,5-triol]
2 nM | 68 nM | – | – | [2H]C1([2H])Cc2cc(Cc3cc([C@@H]4O[C@H](CO)[C@@H](O)[C@H](O)[C@H]4O)c(OC)cc3C)ccc21 [Compound 86, (2S,3R,4R,5S,6R)-2-(5-((1,1-dideuterium-1,2-dihydrocyclobutabenzen-4-yl)methyl)-2-methoxy-4-methylphenyl)-6-(hydroxymethyl)-tetrahydro-2H-pyran-3,4,5-triol]
2 nM | 18 nM | – | – | [2H]C1([2H])Cc2cc(Cc3cc([C@@H]4O[C@H](CO)[C@@H](O)[C@H](O)[C@H]4O)ccc3CC)ccc21 [Compound 87, (2S,3R,4R,5S,6R)-2-(3-((1,1-dideuterium-1,2-dihydrocyclo-butabenzen-4-yl)methyl)-4-ethylphenyl)-6-(hydroxymethyl)-tetrahydro-2H-pyran-3,4,5-triol]

Reference: patent US10815210B2, “Benzocyclobutane derivatives useful as dual SGLT1 / SGLT2 modulators” (Janssen Pharmaceutica NV, priority 2016, dated 2020)
